The text below walks through data of ChEMBL document CHEMBL1201862, “PubChem BioAssay data set” (2004).

For orientation: IC50 means the concentration that inhibits the measured activity by half. One may read the AC50 as the concentration giving half of the maximal activity seen. In general, EC50 refers to the concentration that produces a half-maximal response. A low value points to an effect from little substance.

Molecules are shown by their SMILES. Activity calls are given as the source filed them.

The target of assay [1] is Glucose-6-phosphate 1-dehydrogenase (Homo sapiens, UniProt P11413). The experiment in a line: inhibition of Homo sapiens G6PD, dose series – biochemical, fluorescence, selectivity assay for P. falciparum G6PD inhibitor project, dose response (AID 504792). In kind it is functional.
Chain of Glucose-6-phosphate 1-dehydrogenase (P11413 whole entry): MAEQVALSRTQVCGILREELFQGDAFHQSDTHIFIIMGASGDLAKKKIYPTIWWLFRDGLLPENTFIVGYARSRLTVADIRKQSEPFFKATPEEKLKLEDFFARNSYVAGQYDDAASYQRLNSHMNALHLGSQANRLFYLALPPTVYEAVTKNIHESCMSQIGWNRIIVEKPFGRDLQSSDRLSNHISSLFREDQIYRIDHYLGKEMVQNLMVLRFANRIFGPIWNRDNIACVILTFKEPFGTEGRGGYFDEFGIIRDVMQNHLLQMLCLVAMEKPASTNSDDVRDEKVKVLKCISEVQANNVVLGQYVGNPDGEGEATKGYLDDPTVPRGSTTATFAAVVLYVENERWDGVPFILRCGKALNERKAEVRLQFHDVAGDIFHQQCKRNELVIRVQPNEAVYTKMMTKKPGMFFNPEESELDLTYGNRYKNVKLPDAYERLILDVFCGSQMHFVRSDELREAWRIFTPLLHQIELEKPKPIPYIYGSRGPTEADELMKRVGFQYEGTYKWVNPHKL
Assay [2] deals with DNA repair protein RAD52 homolog (Homo sapiens, UniProt P43351). In kind it is functional, biochemical.
Chain of DNA repair protein RAD52 homolog (P43351 whole entry): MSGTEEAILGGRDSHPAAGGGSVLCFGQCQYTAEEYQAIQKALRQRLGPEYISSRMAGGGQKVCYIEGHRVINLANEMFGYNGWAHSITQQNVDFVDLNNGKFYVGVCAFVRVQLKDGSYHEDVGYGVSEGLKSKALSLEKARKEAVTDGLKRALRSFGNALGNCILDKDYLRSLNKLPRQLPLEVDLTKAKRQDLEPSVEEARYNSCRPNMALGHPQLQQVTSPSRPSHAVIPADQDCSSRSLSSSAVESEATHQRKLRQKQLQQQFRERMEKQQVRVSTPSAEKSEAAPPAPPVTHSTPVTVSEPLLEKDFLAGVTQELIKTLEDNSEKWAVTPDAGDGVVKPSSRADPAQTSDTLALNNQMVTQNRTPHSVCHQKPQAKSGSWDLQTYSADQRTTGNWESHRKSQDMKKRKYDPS
The target in assay [3] is T1, Zinc finger protein mex-5 (Caenorhabditis elegans, UniProt Q9XUB2).
T1 sequence (Q9XUB2 whole entry): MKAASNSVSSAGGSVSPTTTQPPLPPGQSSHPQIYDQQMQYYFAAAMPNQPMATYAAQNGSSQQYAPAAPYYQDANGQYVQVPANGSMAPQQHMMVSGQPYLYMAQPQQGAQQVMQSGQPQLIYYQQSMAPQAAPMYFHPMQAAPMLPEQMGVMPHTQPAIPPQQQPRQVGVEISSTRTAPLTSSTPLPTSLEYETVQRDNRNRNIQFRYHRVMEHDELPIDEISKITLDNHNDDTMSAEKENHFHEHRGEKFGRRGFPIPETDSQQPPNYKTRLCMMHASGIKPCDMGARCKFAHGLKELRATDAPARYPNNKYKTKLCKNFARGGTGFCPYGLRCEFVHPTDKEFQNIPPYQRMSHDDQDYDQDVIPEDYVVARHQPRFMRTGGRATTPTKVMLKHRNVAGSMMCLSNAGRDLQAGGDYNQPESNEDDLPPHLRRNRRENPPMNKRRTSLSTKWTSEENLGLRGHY
The experiment in a line: potency of MEX-5 RNA-binding blockers – biochemical, C. elegans, fluorescence polarization, dose response (AID 1960). (In general: Polarisation of emitted light reports the rotation of a fluorescent probe.)

Assay [4] addresses 26S proteasome non-ATPase regulatory subunit 14 (Homo sapiens, UniProt O00487). Kind of assay: inhibition of proteasome subunit RPN11 – biochemical, fluorescence polarization, uHTS hits, confirmation (AID 602368). The format is functional.
For assay [5], the target named is 72 kDa type IV collagenase (Homo sapiens, UniProt P08253). Kind of assay: Dose Response validation of uHTS RPN11 inhibitor hits using a MMP-2 Fluorescence assay. In kind it is functional.
Chain of 72 kDa type IV collagenase (P08253 whole entry): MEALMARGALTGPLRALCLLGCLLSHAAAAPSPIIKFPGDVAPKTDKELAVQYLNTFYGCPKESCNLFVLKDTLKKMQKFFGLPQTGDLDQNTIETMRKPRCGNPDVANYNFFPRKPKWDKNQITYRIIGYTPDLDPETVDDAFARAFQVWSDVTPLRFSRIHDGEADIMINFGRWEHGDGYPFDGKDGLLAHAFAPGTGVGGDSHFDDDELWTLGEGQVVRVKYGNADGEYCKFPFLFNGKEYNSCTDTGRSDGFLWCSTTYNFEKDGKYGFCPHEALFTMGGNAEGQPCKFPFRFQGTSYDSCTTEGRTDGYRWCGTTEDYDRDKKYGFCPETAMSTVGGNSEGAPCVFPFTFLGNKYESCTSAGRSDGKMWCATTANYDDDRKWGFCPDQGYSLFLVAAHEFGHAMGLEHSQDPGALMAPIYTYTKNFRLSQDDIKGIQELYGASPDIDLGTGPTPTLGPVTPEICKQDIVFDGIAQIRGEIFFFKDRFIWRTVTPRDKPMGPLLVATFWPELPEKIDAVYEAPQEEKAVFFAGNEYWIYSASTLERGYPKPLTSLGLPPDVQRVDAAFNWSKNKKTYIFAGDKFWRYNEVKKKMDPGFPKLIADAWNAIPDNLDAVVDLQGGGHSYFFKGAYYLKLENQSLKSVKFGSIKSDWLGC
For another assay, the target named is Steroidogenic factor 1 (Homo sapiens, UniProt Q13285). Kind of assay: Counterscreen for inverse agonists of the liver receptor homolog-1 (LRH-1; NR5A2): Luminescence-based cell-based high throughput dose response assay to identify inverse agonists of the Steroidogenic Factor 1 Nuclear Receptor (SF1; NR5A1). In kind it is functional. (A counterscreen serves to expose hits that act by an unwanted route or on another target.)
Chain of Steroidogenic factor 1 (Q13285 whole entry): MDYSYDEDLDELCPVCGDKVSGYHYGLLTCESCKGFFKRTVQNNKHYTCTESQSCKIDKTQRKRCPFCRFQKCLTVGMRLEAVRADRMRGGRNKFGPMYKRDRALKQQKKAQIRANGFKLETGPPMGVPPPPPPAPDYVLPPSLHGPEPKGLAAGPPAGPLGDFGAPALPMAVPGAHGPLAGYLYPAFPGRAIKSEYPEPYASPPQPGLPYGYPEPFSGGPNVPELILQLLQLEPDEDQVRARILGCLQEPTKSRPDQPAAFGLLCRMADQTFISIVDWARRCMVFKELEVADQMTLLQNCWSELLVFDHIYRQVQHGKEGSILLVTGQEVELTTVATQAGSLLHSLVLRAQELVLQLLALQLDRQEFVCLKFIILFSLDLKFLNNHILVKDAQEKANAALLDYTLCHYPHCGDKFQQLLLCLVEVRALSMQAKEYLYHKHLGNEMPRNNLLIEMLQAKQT

The target of the next assay is Prothrombin (Bos taurus, UniProt P00735). Kind of assay: thrombin protease inhibitors – biochemical, fluorescence polarization, uHTS hits, dose response (AID 602369). The format is functional.
Assay [6] addresses T2, RNA-binding protein pos-1 (Caenorhabditis elegans, UniProt G5EF15).
T2 sequence (G5EF15 whole entry): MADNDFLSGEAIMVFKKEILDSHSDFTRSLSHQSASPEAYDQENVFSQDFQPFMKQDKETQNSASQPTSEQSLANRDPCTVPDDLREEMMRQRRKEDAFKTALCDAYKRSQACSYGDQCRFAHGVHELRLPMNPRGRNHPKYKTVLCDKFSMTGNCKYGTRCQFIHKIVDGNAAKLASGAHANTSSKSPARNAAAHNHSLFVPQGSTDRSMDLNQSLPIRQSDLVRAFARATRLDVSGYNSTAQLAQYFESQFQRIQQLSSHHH
The experiment in a line: disruptors of C. elegans POS-1 RNA interaction – biochemical, fluorescence polarization, dose response (AID 1964).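 Also: purified POS-1 fused to maltose binding protein made in E. coli; potency of compounds blocking POS-1 binding to fluorescent RNA.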

Assay [7] addresses Nuclear receptor subfamily 5 group A member 2 (Homo sapiens, UniProt O00482). In kind it is functional, cell-based.
A short description of assay [8]: nonselective StAR promoter luciferase inhibitors – cell-based, luminescence, luciferase reporter, counter-screen for LRH-1 inverse agonist project, dose response (AID 651969). The format is functional. On the technique in general: A reporter such as luciferase makes a cellular process visible.
For a further assay, the target named is Trypsin (Sus scrofa, UniProt P00761). Kind of assay: trypsin protease activity blockade – biochemical, quenched peptide fluorescence, cherry-pick, selectivity assay for Rce1 protease inhibitor project, dose response (AID 488789).
Chain of Trypsin (P00761 whole entry): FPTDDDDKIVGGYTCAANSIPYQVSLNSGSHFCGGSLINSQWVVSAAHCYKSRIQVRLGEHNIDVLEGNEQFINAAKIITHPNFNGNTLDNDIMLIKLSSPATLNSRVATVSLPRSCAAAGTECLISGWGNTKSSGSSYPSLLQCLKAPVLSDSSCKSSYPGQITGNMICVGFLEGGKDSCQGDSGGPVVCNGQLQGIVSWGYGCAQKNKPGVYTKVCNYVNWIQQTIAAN
Another assay deals with CAAX prenyl protease 2 (Homo sapiens, UniProt Q9Y256). Kind of assay: inhibition of Ras-converting CAAX protease Rce1 – biochemical, yeast membranes, quenched-peptide fluorescence, cherry-pick, dose response (AID 588849).
Chain of CAAX prenyl protease 2 (Q9Y256 whole entry): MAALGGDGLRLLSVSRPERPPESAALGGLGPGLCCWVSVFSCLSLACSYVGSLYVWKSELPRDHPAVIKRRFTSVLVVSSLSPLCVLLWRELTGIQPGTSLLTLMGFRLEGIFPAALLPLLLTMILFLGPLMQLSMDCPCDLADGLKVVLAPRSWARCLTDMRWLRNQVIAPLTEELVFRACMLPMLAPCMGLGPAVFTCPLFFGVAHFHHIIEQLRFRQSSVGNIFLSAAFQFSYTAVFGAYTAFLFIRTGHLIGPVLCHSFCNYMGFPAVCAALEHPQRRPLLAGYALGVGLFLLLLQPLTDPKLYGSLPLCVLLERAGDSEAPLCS
In assay [9] the target is T3, Nuclear receptor subfamily 0 group B member 1 (Homo sapiens, UniProt P51843).
T3 sequence (P51843 whole entry): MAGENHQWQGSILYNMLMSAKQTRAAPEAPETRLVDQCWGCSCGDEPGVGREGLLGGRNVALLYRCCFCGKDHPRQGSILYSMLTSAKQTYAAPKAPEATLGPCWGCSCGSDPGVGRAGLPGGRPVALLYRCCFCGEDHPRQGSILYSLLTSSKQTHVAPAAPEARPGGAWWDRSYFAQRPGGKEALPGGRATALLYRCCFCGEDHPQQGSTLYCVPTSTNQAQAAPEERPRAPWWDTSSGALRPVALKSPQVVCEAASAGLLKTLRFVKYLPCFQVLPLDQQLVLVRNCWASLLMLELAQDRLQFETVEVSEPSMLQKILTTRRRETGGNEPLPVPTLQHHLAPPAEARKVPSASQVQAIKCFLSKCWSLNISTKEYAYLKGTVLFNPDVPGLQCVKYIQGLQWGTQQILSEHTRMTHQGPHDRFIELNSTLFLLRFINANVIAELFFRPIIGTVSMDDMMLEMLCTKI
Kind of assay: Luminescence-based cell-based high throughput dose response assay for inhibitors of the orphan nuclear receptor subfamily 0, group B, member 1 (DAX1; NR0B1). [Related pubchem assays (depositor defined):AID504766, AID504790]. The format is functional.

A further assay deals with HEK293. Kind of assay: cells. In kind it is functional, cell-based. The settings on record: Homo sapiens.
Another assay addresses T4, Leucine aminopeptidase (Plasmodium falciparum 3D7, UniProt Q8IL11).
T4 sequence (Q8IL11 whole entry): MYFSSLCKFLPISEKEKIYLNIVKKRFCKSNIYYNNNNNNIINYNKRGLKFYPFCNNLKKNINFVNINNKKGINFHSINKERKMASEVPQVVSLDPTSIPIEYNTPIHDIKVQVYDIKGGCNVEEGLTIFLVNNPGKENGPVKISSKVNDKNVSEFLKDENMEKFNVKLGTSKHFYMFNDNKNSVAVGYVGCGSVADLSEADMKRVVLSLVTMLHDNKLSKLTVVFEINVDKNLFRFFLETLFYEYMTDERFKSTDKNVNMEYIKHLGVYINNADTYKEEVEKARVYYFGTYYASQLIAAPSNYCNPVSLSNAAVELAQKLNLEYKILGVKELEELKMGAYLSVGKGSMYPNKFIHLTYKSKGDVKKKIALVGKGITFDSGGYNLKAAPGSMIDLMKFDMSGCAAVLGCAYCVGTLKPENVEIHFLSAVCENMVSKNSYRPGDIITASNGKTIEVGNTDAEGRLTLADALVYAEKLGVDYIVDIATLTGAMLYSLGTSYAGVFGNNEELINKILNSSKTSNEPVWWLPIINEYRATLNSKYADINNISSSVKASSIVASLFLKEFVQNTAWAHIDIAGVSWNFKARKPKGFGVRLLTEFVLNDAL
The experiment in a line: P. falciparum M17LAP inhibitors, primary screen, biochemical, fluorogenic H-Leu-NHMec substrate, 1536-well (AID 1619). The format is functional.

Chain of Nuclear receptor subfamily 5 group A member 2 (O00482 whole entry): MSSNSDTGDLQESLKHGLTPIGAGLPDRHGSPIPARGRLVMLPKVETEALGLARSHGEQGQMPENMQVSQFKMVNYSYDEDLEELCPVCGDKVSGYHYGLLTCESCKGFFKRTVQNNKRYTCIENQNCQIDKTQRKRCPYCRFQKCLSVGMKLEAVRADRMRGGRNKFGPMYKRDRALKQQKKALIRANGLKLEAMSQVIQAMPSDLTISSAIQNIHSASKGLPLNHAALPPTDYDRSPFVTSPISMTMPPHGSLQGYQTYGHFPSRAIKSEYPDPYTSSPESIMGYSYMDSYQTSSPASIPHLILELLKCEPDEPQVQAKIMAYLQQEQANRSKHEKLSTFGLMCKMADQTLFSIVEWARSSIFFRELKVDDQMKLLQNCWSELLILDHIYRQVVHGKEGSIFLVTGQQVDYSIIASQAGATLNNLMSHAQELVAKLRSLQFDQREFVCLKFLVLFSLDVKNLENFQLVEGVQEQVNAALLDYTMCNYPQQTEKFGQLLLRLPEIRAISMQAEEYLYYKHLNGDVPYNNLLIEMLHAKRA
Chain of 26S proteasome non-ATPase regulatory subunit 14 (O00487 whole entry): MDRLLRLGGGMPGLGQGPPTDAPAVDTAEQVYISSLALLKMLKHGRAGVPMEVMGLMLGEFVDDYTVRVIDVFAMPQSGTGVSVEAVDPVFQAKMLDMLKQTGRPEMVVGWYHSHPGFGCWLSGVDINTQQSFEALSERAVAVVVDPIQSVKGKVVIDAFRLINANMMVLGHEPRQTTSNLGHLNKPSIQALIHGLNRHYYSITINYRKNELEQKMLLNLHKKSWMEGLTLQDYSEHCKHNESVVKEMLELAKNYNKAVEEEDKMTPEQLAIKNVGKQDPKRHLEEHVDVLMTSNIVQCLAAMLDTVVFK

For `O=C(CCl)NCCN1C(=O)S/C(=C\c2cccnc2)C1=O`, the IC50 was > 80 µM (inactive) in assay [1]; 7.21 µM (active) in [4]; 21.2 µM (active) in [5]; 3.69 µM (active) on Steroidogenic factor 1; > 100 µM (inactive) at Prothrombin; 8.94 µM (active) in [7]. In addition, in assay [8], the IC50 is 26.4 µM (inactive). Further, the AC50 in assay [2] is 2.24 µM (active). Further, the EC50 in [3] and in assay [6] was > 300 µM (not active) each time.
As for `CCOC(=O)c1sc2nc(C3CC3)cc(-c3ccc(OC)cc3)c2c1N`, the AC50 on Trypsin is 0.642 µM (active); at CAAX prenyl protease 2 it was 14.8 µM (active).
For the compound `Cc1ccc(S(=O)(=O)Oc2cccc(N3C(=O)C4CC=CCC4C3=O)c2)cc1` (stereo not given), the figures for the IC50 (in [9]; with HEK293; at Leucine aminopeptidase) were > 67.5 µM (inactive), > 67.5 µM (inactive) and 49.6 µM (active), respectively.
